Data reported in patent US8383637B2, “2-amino-quinazoline derivatives useful as inhibitors of β-secretase (BACE)” (Jansssen Pharmaceutica N.V., priority 2004, dated 2013).
Where two headings read alike, the source gives them in different places. Blank lines part the entries; values can stand above or below the compound they belong to.

Experiments:
[1] = target: T1, β-secretase(BACE) (Homo sapiens, UniProt P56817); assay: BACE Assay-2 (FS1 substrate, IC50 and Ki); format: biochemical; settings: procedure of Example 159, FS1 substrate; read-out: Ki μM (159)
T1 construct: purchased Panvera
T1 sequence (P56817 46-501): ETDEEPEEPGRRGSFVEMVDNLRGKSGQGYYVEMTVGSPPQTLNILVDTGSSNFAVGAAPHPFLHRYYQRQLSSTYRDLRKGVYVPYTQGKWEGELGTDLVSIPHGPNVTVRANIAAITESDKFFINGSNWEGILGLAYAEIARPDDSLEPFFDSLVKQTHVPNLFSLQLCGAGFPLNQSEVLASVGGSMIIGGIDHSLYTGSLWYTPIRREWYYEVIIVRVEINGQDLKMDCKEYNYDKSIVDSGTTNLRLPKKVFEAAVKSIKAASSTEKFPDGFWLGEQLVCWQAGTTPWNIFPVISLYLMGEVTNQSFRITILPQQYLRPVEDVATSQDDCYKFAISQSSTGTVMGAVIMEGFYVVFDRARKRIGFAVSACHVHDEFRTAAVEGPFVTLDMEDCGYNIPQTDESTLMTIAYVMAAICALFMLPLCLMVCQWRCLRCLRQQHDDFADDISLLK
Procedure: The FS1-substrate stock solution was prepared in DMSO as a 10 mg/mL solution. The FS1-substrate working solution was prepared by diluting the 10 mg/mL stock solution with substrate assay buffer to a final concentration of 300 μg/mL. The β-secretase (BACE) working solution was prepared by diluting a 0.83 mg/mL BACE stock solution with enzyme assay buffer to a final concentration of 4 μg/mL.
Test compounds were dissolved in DMSO at 10 mM.
The procedure for this assay was as follows: 15 μL of BACE working solution was pipetted into each well of a 96-well plate. To each well was then pipetted 2 μL of test compound at the selected concentration. Test compound and BACE were then mixed with a pipettor and incubated for 20 min at room temperature. To each well was then added 10 μL of the FS1 substrate working solution.
The procedure for the positive control was as follows: 15 μL of BACE working solution was pipetted into each well to be used as a positive control. To each well was then pipetted 2 μL of vehicle. Vehicle and BACE were then mixed with a pipettor and incubated for 20 min at room temperature. To each well was then added 10 μL of the FS1 substrate working solution.
For test compounds, measured at multiple concentrations, the measured T0 and T60 values were used to calculate an IC50 value using Graphpad Software (or PIR). For test compounds, Ki inhibition was determined as follows: For each compound concentration and positive control, rate of cleavage of substrate (Vi, where i=compound concentration in μM) was determined as Δ Fluorescence/Δ time (min). Cleavage rates (Vi) were plotted as a function of inhibitor concentration in μM [I]. The Ki was then determined by fitting the following equation to the graph of [I] vs Vi Y=aVmax/(50+24*(1+X/Ki)),

[2] = target: T1, β-secretase(BACE); assay: BACE FS1% Inhibition Assay; format: biochemical; settings: FS1 substrate; for inhibition at 0.3 µM: 0.3 μM test compound; for inhibition at 1 µM: 1 μM test compound; for inhibition at 3 µM: 3 μM test compound
How it was run: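 Percent inhibition at each tested concentration, referenced to enzyme-free blank and vehicle-only positive control. Reaction: compound and BACE (4 μg/mL working stock) mixed 20 min at room temperature before FS1 substrate (300 μg/mL working stock), then 1 h at room temperature.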

[3] = read-out: % Inhibition (FS) 0.3 μM
[4] = read-out: % Inhibition (FS) 1 μM
[5] = read-out: % Inhibition (FS) 3 μM

Compound: CC(C)CC(=O)NC[C@@H](C(C)C)N1Cc2cc(Oc3ccccc3)ccc2N=C1N [Compound 563]
Ki [1]: 0.02 µM
inhibition at 0.3 µM [2, 3]: 101%
inhibition at 1 µM [2, 4]: 119%
inhibition at 3 µM [2, 5]: 127%

Compound: NC1=Nc2ccc(-c3ccccc3O)cc2CN1CCNC(=O)C1CCCCC1 [Compound 538]
Ki [1]: 0.44 µM
inhibition at 0.3 µM [2, 3]: < 30%
inhibition at 1 µM [2, 4]: 53%
inhibition at 3 µM [2, 5]: 100%

Compound: Cc1ccccc1Sc1ccc2c(c1)CN(Cc1cccc(C(=O)N(C)C3CCCCC3)c1)C(N)=N2 [Compound 404]
Ki [1]: 0.78 µM
inhibition at 0.3 µM [2, 3]: < 30%
inhibition at 1 µM [2, 4]: 32%
inhibition at 3 µM [2, 5]: 67%

Compound: CC(C)[C@@H](CCC(=O)N(C)C1CCCCC1)N1Cc2cc(Oc3ccccc3)ccc2N=C1N [Compound 444]
Ki [1]: 0.58 µM
inhibition at 0.3 µM [2, 3]: < 30%
inhibition at 1 µM [2, 4]: < 30%
inhibition at 3 µM [2, 5]: 30%

Compound: CC(C)CCC(=O)NCCN1Cc2cc(-c3ccccc3Cl)ccc2N=C1N [Compound 654]
Ki [1]: 0.046 µM
inhibition at 0.3 µM [2, 3]: 83%
inhibition at 1 µM [2, 4]: 102%
inhibition at 3 µM [2, 5]: 111%

Compound: Cc1cccc(Oc2ccc3c(c2)CN(Cc2cccc(C(=O)N(C)C4CCCCC4)c2)C(N)=N3)c1 [Compound 209]
Ki [1]: 0.29 µM
inhibition at 0.3 µM [2, 3]: < 30%
inhibition at 1 µM [2, 4]: 58%
inhibition at 3 µM [2, 5]: 103%

Compound: CN(C(=O)CCC(c1ccccc1)N1Cc2cc(Oc3ccccc3)ccc2N=C1N)C1CCCCC1 (stereo not drawn) [Compound 151]
Ki [1]: 0.23 µM
inhibition at 3 µM [2, 5]: 79%
inhibition at 10 µM ([2]; 10 μM test compound, read-out: % Inhibition (FS) 10 μM): 104%

Results, then the compound that gave them:

Ki [1]: 0.054 µM
inhibition at 0.3 µM ([2]; read-out: % Inhibition (FS)): 93%
inhibition at 1 µM ([2]; read-out: % Inhibition (FS)): 109%
inhibition at 3 µM ([2]; read-out: % Inhibition (FS)): 114%
Compound: CN(C(=O)CC[C@@H](C1CCC2(CC1)OCCO2)N1Cc2cc(Oc3ccccc3)ccc2N=C1N)C1CCCCC1 [Compound 730, S-enantiomer of 4-(2-Amino-6-phenoxy-4H-quinazolin-3-yl)-N-cyclohexyl-4-(1,4-dioxa-spiro[4.5]dec-8-yl)-N-methyl-butyramide]

Ki [1]: 0.013 µM
inhibition at 0.3 µM ([2]; read-out: % Inhibition (FS)): 122%
inhibition at 1 µM ([2]; read-out: % Inhibition (FS)): 120%
inhibition at 3 µM ([2]; read-out: % Inhibition (FS)): 126%
Compound: NC1=Nc2ccc(Oc3ccccc3)cc2CN1[C@@H](CCC(=O)N(CC(=O)O)C1CCCCC1)C1CCCCC1 [Compound 768, {[4-(2-Amino-6-phenoxy-4H-quinazolin-3-yl)-4S-cyclohexyl-butyryl]-cyclohexyl-amino}-acetic acid]

Ki [1]: 0.005 µM
inhibition at 0.3 µM ([2]; read-out: % Inhibition (FS)): 115%
inhibition at 1 µM ([2]; read-out: % Inhibition (FS)): 114%
inhibition at 3 µM ([2]; read-out: % Inhibition (FS)): 116%
Compound: NC1=Nc2ccc(Oc3ccccc3)cc2CN1[C@@H](CCC(=O)N(CCO)[C@H]1CC[C@@H](C(=O)O)CC1)C1CCOCC1 [Compound 750, (S)-Enantiomer of 4-cis-[[4-(2-Amino-6-phenoxy-4H-quinazolin-3-yl)-4-(tetrahydro-pyran-4-yl)-butyryl]-(2-hydroxy-ethyl)-amino]-cyclohexanecarboxylic acid]

Ki [1]: 0.1 µM
inhibition at 0.3 µM ([2]; read-out: % Inhibition (FS)): 39%
inhibition at 1 µM ([2]; read-out: % Inhibition (FS)): 104%
inhibition at 3 µM ([2]; read-out: % Inhibition (FS)): 134%
Compound: CN(C(=O)CCC(C1CCCCC1)N1Cc2cc(Oc3ccccc3)ccc2N=C1N)C1CCC(O)CC1 (stereo not drawn) [Compound 712]

Ki [1]: 0.0084 µM
inhibition at 0.3 µM [2, 3]: 115%
inhibition at 1 µM [2, 4]: 118%
inhibition at 3 µM [2, 5]: 117%
Compound: CN(C(=O)CCC(C1CCC(O)CC1)N1Cc2cc(Oc3ccccc3)ccc2N=C1N)C1CCCCC1 (stereo not drawn) [Compound 632, 4-(2-Amino-6-phenoxy-4H-quinazolin-3-yl)-N-cyclohexyl-4-(4-hydroxy-cyclohexyl)-N-methyl-butyramide]

Ki [1]: 0.011 µM
inhibition at 0.3 µM [2, 3]: 119%
inhibition at 1 µM [2, 4]: 118%
inhibition at 3 µM [2, 5]: 125%
Compound: CN(C(=O)CCC(C1CCOCC1)N1Cc2cc(Oc3ccccc3)ccc2N=C1N)C1CCCCC1 (stereo not drawn) [Compound 619]
